Test results: paper PMC10901772, “Cytotoxic naphtho- and benzofurans from an endophytic fungus Epicoccum nigrum Ann-B-2 associated with Annona squamosa fruits” (Scientific Reports, 2024)
≈ marks a conversion by molar mass, not a printed value. Entries after “also recorded” stand apart in the source; their conditions may differ. Read-outs that look alike come from different tables or passages of the source.

Experiments:
Format in all cases: cell-based
[1] = tested on: Mycobacterium smegmatis [ATCC 700084]; experiment: MIC, 96-well plate serial dilution assay
[2] = tested on: Mucor hiemalis [DSM 2656]; experiment: MIC, 96-well plate serial dilution assay
[3] = tested on: Staphylococcus aureus [DSM 346]; experiment: MIC, 96-well plate serial dilution assay
[4] = tested on: Rhodotorula glutinis [DSM 10134]; experiment: MIC, 96-well plate serial dilution assay
[5] = tested on: Bacillus subtilis [DSM 10]; experiment: MIC, 96-well plate serial dilution assay; details: for MIC: DSM10, concentration range 67 to 0.5 µg/mL
[6] = tested on: Candida albicans [DSM 1665]; experiment: MIC, 96-well plate serial dilution assay
[7] = tested on: panel of seven cancer cell lines; experiment: In vitro cytotoxicity, MTT assay, whole panel; details: for antiproliferative / anticancer activity (in words): panel of cancer cell lines; for IC50: panel of seven different cancer cell lines, read-out: IC50 values, range over the panel
Procedure: (§1) In vitro cytotoxicity studies (data expressed in the form of IC50 values) were performed over a concentration range between 1 and 37 µg/mL on a panel of seven cancer cell lines including human endocervical adenocarcinoma (KB3.1), mouse fibroblasts (L929), lung cancer (A549), squamous cancer (A431), prostate cancer (PC-3), breast cancer (MCF-7), and ovary cancer (SK-OV-3) using the MTT assay as previously reported.

[8] = tested on: prostate cancer (PC-3); experiment: In vitro cytotoxicity, MTT assay; details: for sensitivity of PC-3 (in words): PC-3 (prostate cancer)
Procedure: as §1

[9] = tested on: squamous cancer (A431); experiment: In vitro cytotoxicity, MTT assay; details: Homo sapiens, A-431
Procedure: as §1

[10] = tested on: lung cancer (A549); experiment: In vitro cytotoxicity, MTT assay; details: Homo sapiens
Procedure: as §1

[11] = tested on: breast cancer (MCF-7); experiment: In vitro cytotoxicity, MTT assay; details: Homo sapiens, MCF7
Procedure: as §1

[12] = tested on: mouse fibroblasts (L929); experiment: In vitro cytotoxicity, MTT assay
Procedure: as §1

[13] = tested on: ovary cancer (SK-OV-3); experiment: In vitro cytotoxicity, MTT assay; details: Homo sapiens
Procedure: as §1

[14] = tested on: human endocervical adenocarcinoma (KB3.1); experiment: In vitro cytotoxicity, MTT assay; details: KB 3-1, KB3.1, MTT
Procedure: as §1

[15] = tested on: remaining strains (S. aureus, M. smegmatis, M. hiemalis, C. albicans, R. glutinis); experiment: MIC serial dilution assay, strains other than Bacillus subtilis; details: all tested strains except Bacillus subtilis
[16] = concentration range 67 to 0.5 µg/mL
[17] = DSM2656, concentration range 67 to 0.5 µg/mL, read-out: MIC
[18] = DSM346, concentration range 67 to 0.5 µg/mL, read-out: MIC
[19] = DSM10134, concentration range 67 to 0.5 µg/mL, read-out: MIC
[20] = Mycolicibacterium smegmatis, ATCC700084, concentration range 67 to 0.5 µg/mL, read-out: MIC
[21] = DSM1665, concentration range 67 to 0.5 µg/mL, read-out: MIC

Compound | MIC [2, 17] | MIC [3, 18] | MIC [4, 19] | MIC [5] | MIC [1, 20] | MIC [6, 21] | antiproliferative / anticancer activity (in words) [7] | IC50 [7] | IC50 ([8]; PC-3, MTT, read-out: IC50) | IC50 ([9]; A431, MTT, read-out: IC50) | IC50 ([10]; A549, MTT, read-out: IC50) | IC50 ([11]; MCF-7, MTT, read-out: IC50) | IC50 [12] | IC50 ([13]; SKOV-3, MTT, read-out: IC50) | IC50 [14] | further results
NC[C@H]1O[C@H](O[C@H]2[C@H](O)[C@@H](O[C@H]3O[C@H](CO)[C@@H](O)[C@H](N)[C@H]3O)[C@H](N)C[C@@H]2N)[C@H](O)[C@@H](O)[C@@H]1O [Kanamycin, reference compound] | – | – | – | – | – | – | – | – | – | – | – | – | – | – | – | MIC [1, 16]: 1.7^ K µg/ml
Cc1c(O)c(O)c2c(c1C=O)[C@@H]1O[C@H](O2)c2c(C)c(O)c(O)c(O)c2C1=O [Compound 3, epicocconigrone A] | > 67 µg/mL | > 67 µg/mL | > 67 µg/mL | 66.6 µg/mL (≈ 178 µM) | > 67 µg/mL | > 67 µg/mL | active against all tested cell lines; also recorded: promising anticancer activities | 1.3 to 12 µM | 8 µM | 7.8 µM | 10 µM | 2400 nM | 14 µM | 12 µM | 2.7 µM | –
Cc1c(O)c(O)c(O)c(C=O)c1-c1cc2c(C=O)c(C)c(O)c(O)c2o1 [Compound 4, epicoccolide B] | > 67 µg/mL | > 67 µg/mL | > 67 µg/mL | 66.6 µg/mL (≈ 186 µM) | > 67 µg/mL | > 67 µg/mL | weak anticancer activity | – | – | – | – | – | 19 µM | – | 21 µM | –
COC1OC(C2OCc3c(C)c(O)c(O)c(O)c32)c2c(O)c(O)c(O)c(C)c21 (stereo not shown) [Compound 2, flavimycin C] | > 67 µg/mL | > 67 µg/mL | > 67 µg/mL | 33.3 µg/mL (≈ 84.9 µM) | > 67 µg/mL | > 67 µg/mL | highest potency; also recorded: promising anticancer activities | 1.3 to 12 µM | > 100 µM | 8.2 µM | 9.2 µM | 2700 nM | 6.7 µM | 17 µM | 7.8 µM | antimicrobial activity against Bacillus subtilis (in words) [5]: moderate activity; also recorded: moderate antimicrobial activities; potency against Bacillus relative to the standard oxytetracycline [5]: almost half; sensitivity of PC-3 (in words) [8]: insensitive; antimicrobial activity against the remaining strains (in words) [15]: no potential activity
C[C@@H]1[C@H](O)[C@@H](C)/C=C/C=C/CC/C=C/C=C/C=C/C=C/C(O[C@H]2O[C@H](C)[C@@H](O)[C@H](N)[C@@H]2O)CC2O[C@](O)(CC(O)C(O)CCC(O)CC(O)CC(O)CC(=O)O[C@H]1C)CC(O)C2C(=O)O (stereo partly shown) [Nystatin, reference compound] | – | – | – | – | – | – | – | – | – | – | – | – | – | – | – | MIC [2, 16]: 2.1^N µg/ml; MIC [4, 16]: 2.1^N µg/ml; MIC [6, 16]: 2.1^N µg/ml
CN(C)[C@@H]1C(O)=C(C(N)=O)C(=O)[C@@]2(O)C(O)=C3C(=O)c4c(O)cccc4[C@@](C)(O)[C@H]3[C@H](O)[C@@H]12 [Oxytetracycline, reference compound] | – | – | – | 16.6 µg/mL (≈ 36.1 µM) | – | – | – | – | – | – | – | – | – | – | – | –
Cc1c(O)c(O)c(O)c2c1COC2 [Compound 6, 4,5,6-trihydroxy-7-methyl-1,3-dihydroisobenzofuran] | > 67 µg/mL | > 67 µg/mL | > 67 µg/mL | > 67 µg/mL | > 67 µg/mL | > 67 µg/mL | highest potency; also recorded: promising anticancer activities | 1.3 to 12 µM | > 100 µM | 7.3 µM | 6.3 µM | 1300 nM | 2.8 µM | 7.8 µM | 3.4 µM | sensitivity of PC-3 (in words) [8]: insensitive
Gentamycin [reference compound] | – | – | – | – | – | – | – | – | – | – | – | – | – | – | – | MIC [3, 16]: 0.21^G µg/ml
C/C(=C\c1csc(C)n1)[C@@H]1C[C@@H]2O[C@]2(C)CCC[C@H](C)[C@H](O)[C@@H](C)C(=O)C(C)(C)[C@@H](O)CC(=O)O1 [Epothilone B, reference compound] | – | – | – | – | – | – | – | – | – | – | – | – | – | – | – | IC50 [8]: 9e-05 µM; IC50 [9]: 6e-05 µM; IC50 ([10]; A549): 5e-05 µM; IC50 [11]: 0.07 nM; IC50 [13]: 9e-05 µM
Cc1c2c(c3c(C)c(O)c(C(=O)O)c(O)c3c1O)COC2 [Compound 1, epicoccofuran A] | > 67 µg/mL | > 67 µg/mL | > 67 µg/mL | 33.3 µg/mL (≈ 115 µM) | > 67 µg/mL | > 67 µg/mL | weak anticancer activity | – | – | – | – | – | 12 µM | – | 16 µM | antimicrobial activity against Bacillus subtilis (in words) [5]: moderate activity; also recorded: moderate antimicrobial activities; potency against Bacillus relative to the standard oxytetracycline [5]: almost half; antimicrobial activity against the remaining strains (in words) [15]: no potential activity
Cc1c(O)c(O)c(O)c2c1C(=O)OC2 [Compound 5, epicoccone] | > 67 µg/mL | > 67 µg/mL | > 67 µg/mL | > 67 µg/mL | > 67 µg/mL | > 67 µg/mL | active against all tested cell lines; also recorded: promising anticancer activities | 1.3 to 12 µM | 8 µM | 7.3 µM | 6.8 µM | 3800 nM | 7.5 µM | 8.2 µM | 6.1 µM | –
